Results taken from US9981975B2, “Pyrrolotriazine compounds as tam inhibitors” (Incyte Corporation, priority 2016, dated 2018).
pIC50: −log10 of the molar value.

What follows are compounds tested against Tyro3 (Homo sapiens (Human), UniProt Q06418) (assay: TAM Enzymatic Assay (HTRF), Tyro3). Details: Tyro3, 60 min, room temperature.
Type: biochemical
Description: The kinase assay buffer contained 50 mM HEPES, pH7.5, 10 mM MgCl2, 1 mM EGTA, 0.01% NP-40 and 2 mM DTT. 0.1 ul test compounds dissolved in DMSO were transferred from compound plates to white 384-well assay plates (Greiner […] plates). […] 4 ul enzyme solution (or assay buffer for the enzyme blank) was added to the appropriate wells in each plate, and then 4 ul/well substrate solution was added to initiate the reaction. The plate was protected from light and incubated at room temperature for 60 min. […] The plate was incubated for 1 h at room temperature, and HTRF (homogenous time resolved fluorescence) signal was measured on a PHERAstar FS plate reader (BMG labtech). Percentage of inhibition was calculated for each concentration and IC50 value was generated from curve fitting with GraphPad Prism software.

Chain of Tyro3 (Q06418 41-890): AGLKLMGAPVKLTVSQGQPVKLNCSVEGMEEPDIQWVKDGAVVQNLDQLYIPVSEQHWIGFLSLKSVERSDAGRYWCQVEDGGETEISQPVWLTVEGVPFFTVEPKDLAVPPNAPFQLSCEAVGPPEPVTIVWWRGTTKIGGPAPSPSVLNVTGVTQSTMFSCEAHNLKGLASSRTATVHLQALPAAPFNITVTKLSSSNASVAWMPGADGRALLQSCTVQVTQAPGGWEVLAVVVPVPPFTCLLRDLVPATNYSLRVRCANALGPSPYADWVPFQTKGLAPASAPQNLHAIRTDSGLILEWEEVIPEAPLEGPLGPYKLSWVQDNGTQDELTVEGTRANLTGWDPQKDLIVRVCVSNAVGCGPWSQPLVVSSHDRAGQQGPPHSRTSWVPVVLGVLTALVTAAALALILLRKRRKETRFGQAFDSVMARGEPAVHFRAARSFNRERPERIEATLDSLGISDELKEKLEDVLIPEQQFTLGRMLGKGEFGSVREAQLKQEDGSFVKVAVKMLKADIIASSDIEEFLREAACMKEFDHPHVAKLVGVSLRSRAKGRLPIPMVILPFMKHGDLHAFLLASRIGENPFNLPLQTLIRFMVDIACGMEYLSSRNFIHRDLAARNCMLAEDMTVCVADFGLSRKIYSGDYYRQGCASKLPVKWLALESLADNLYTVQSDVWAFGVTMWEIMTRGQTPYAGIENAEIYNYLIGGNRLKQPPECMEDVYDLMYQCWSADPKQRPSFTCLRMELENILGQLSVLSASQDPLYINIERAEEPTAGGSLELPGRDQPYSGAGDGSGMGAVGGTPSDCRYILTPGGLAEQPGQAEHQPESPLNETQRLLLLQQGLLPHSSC

| pIC50 | Structure (SMILES) |
| --- | --- |
| < 7.00 | CS(=O)(=O)N1CCC(c2cc(-c3ccc(NC(=O)c4cccn(-c5ccccc5)c4=O)cc3)c3c(N)ncnn23)CC1 [Example 40, N-(4-{4-Amino-7-[1-(methylsulfonyl)piperidin-4-yl]pyrrolo[2,1-f][1,2,4]triazin-5-yl}phenyl)-2-oxo-1-phenyl-1,2-dihydropyridine-3-carboxamide] |
| < 7.00 | Cc1nn(C)c(C)c1-c1cc(-c2ccc(NC(=O)c3cn(C(C)C)c(=O)n(-c4cccc(F)c4)c3=O)cc2)c2c(N)ncnn12 [Example 84, N-(4-(4-Amino-7-(1,3,5-trimethyl-1H-pyrazol-4-yl)pyrrolo[1,2-f][1,2,4]triazin-5-yl)phenyl)-3-(3-fluorophenyl)-1-isopropyl-2,4-dioxo-1,2,3,4-tetrahydropyrimidine-5-carboxamide] |
| < 7.00 | Cc1cc(-c2ccc(NC(=O)c3cccn(-c4ccccc4)c3=O)cc2F)c2c(N)ncnn12 [Example 10, N-[4-(4-Amino-7-methylpyrrolo[2,1-f][1,2,4]triazin-5-yl)-3-fluorophenyl]-2-oxo-1-phenyl-1,2-dihydropyridine-3-carboxamide] |
| 7.00 to 8.00 | CC(C)n1cc(C(=O)Nc2ccc(-c3cc(C4CCN(C5CCN(C)C5=O)CC4)n4ncnc(N)c34)cc2)c(=O)n(-c2ccccc2)c1=O (racemic) [Example 82, N-(4-(4-Amino-7-(1-(1-methyl-2-oxopyrrolidin-3-yl)piperidin-4-yl)pyrrolo[1,2-f][1,2,4]triazin-5-yl)phenyl)-1-isopropyl-2,4-dioxo-3-phenyl-1,2,3,4-tetrahydropyrimidine-5-carboxamide] |
| < 7.00 | COc1ccn(-c2ccccc2)c(=O)c1C(=O)Nc1ccc(-c2c(Br)c(C3CCN(C(=O)C(C)C)CC3)n3ncnc(N)c23)cc1 [Example 100, N-(4-(4-Amino-6-bromo-7-(1-isobutyrylpiperidin-4-yl)pyrrolo[1,2-f][1,2,4]triazin-5-yl)phenyl)-4-methoxy-2-oxo-1-phenyl-1,2-dihydropyridine-3-carboxamide] |
| < 7.00 | Cc1cc(-c2ccc(NC(=O)c3cccn(-c4ccc(F)cc4)c3=O)cc2F)c2c(N)ncnn12 [Example 11, N-[4-(4-Amino-7-methylpyrrolo[2,1-f][1,2,4]triazin-5-yl)-3-fluorophenyl]-1-(4-fluorophenyl)-2-oxo-1,2-dihydropyridine-3-carboxamide] |
| < 7.00 | Cc1c(C(N)=O)cc(C(=O)Nc2ccc(-c3cc(C4CCN(C(=O)C(C)C)CC4)n4ncnc(N)c34)cc2)c(=O)n1-c1ccccc1 [Example 111a, N^3-(4-(4-Amino-7-(1-isobutyrylpiperidin-4-yl)pyrrolo[2,1-f][1,2,4]triazin-5-yl)phenyl)-6-methyl-2-oxo-1-phenyl-1,2-dihydropyridine-3,5-dicarboxamide] |
| < 7.00 | COC(=O)N1CCC(c2cc(-c3ccc(NC(=O)c4cccn(-c5ccccc5)c4=O)cc3)c3c(N)ncnn23)CC1 [Example 36, Methyl 4-[4-amino-5-(4-{[(2-oxo-1-phenyl-1,2-dihydropyridin-3-yl)carbonyl]amino}phenyl)pyrrolo[2,1-f][1,2,4]triazin-7-yl]piperidine-1-carboxylate] |
| < 7.00 | Cc1cc(-c2ccc(NC(=O)c3cccn(-c4ccccc4)c3=O)cc2)c2c(N)ncnn12 [Example 8, N-[4-(4-Amino-7-methylpyrrolo[2,1-f][1,2,4]triazin-5-yl)phenyl]-2-oxo-1-phenyl-1,2-dihydropyridine-3-carboxamide] |
| < 7.00 | CC(C)C(=O)N1CCC(c2cc(-c3ccc(NC(=O)c4cn(C(C)C)c(=O)n(C5CCCCC5)c4=O)cc3)c3c(N)ncnn23)CC1 [Example 90, N-(4-(4-Amino-7-(1-isobutyrylpiperidin-4-yl)pyrrolo[2,1-f][1,2,4]triazin-5-yl)phenyl)-3-cyclohexyl-1-isopropyl-2,4-dioxo-1,2,3,4-tetrahydropyrimidine-5-carboxamide] |
